Patent US5739334A (Istituto Ricerca Francesco Angelini S.p.A., priority 1992, dated 1998)

Legend:
DL50 = type: in vivo; parameters: unit not given beside the values; conditions: species, route and unit not given
serotonin 2 = assay: Chemical bond studies: interference with serotonin 2 receptor (% inhibition); type: binding; conditions: table 2
alpha 1 = assay: Chemical bond studies: interference with alpha 1 receptor (% inhibition); type: binding; conditions: table 2
[1] = Burger's Medicinal Chemistry, 4th ed. (1981); cited from earlier work
[2] = attributed to action on adrenergic receptors (alpha 1 and alpha 2); cited from earlier work

In the case of `CC(CCn1nc2ccccn2c1=O)N1CCN(c2cccc(Cl)c2)CC1` (centres unmarked) [(I) R = R" = R"' = H; R' = CH3, 2-[3-[4-(3-chlorophenyl)-1-piperazinyl]-3-methylpropyl]-1,2,4-triazole-[4,3-a]-pyridin-3(2H)-one], the DL50 (DL50) is reported as at most 300, the “serotonine 2 (% inhibition)” value (serotonin 2; C = 10^-5 M) is reported as 100% and the “serotonine 2 (% inhibition)” value (serotonin 2; C = 10^-7 M) is reported as 59%. The “alpha 1 (% inhibition)” value (alpha 1; C = 10^-5 M) was 91% and the “alpha 1 (% inhibition)” value (alpha 1; C = 10^-7 M) was 26%.

For `CC1CN(CCCn2nc3ccccn3c2=O)CCN1c1cccc(Cl)c1` (centres unmarked) [(I) R = R' = R" = H; R"' = CH3, 2-[3-[4-(3-chlorophenyl)-1-(3-methyl)-piperazinyl]-propyl]-1,2,4-triazole-[4,3-a]-pyridin-3(2H)-one], the DL50 (DL50) was at most 600, the “serotonine 2 (% inhibition)” value (serotonin 2; C = 10^-5 M) was 98% and the “serotonine 2 (% inhibition)” value (serotonin 2; C = 10^-7 M) was 68%. The “alpha 1 (% inhibition)” value (alpha 1; C = 10^-5 M) was 85% and the “alpha 1 (% inhibition)” value (alpha 1; C = 10^-7 M) was 20%.

In the case of `CC1CN(c2cccc(Cl)c2)CCN1CCCn1nc2ccccn2c1=O` (centres unmarked) [(I) R = R' = R"' = H; R" = CH3, 2-[3-[4-(3-chlorophenyl)-1-(2-methyl)-piperazinyl]-propyl]-1,2,4-triazole-[4,3-a]-pyridin-3(2H)-one], the DL50 (DL50) is reported as 300, the “serotonine 2 (% inhibition)” value (serotonin 2; C = 10^-5 M) is reported as 100% and the “serotonine 2 (% inhibition)” value (serotonin 2; C = 10^-7 M) is reported as 69%. The “alpha 1 (% inhibition)” value (alpha 1; C = 10^-5 M) was 96% and the “alpha 1 (% inhibition)” value (alpha 1; C = 10^-7 M) was 37%.

In the case of `CC(CN1CCN(c2cccc(Cl)c2)CC1)Cn1nc2ccccn2c1=O` (centres unmarked) [(I) R' = R" = R"' = H; R = CH3, 2-[3-[4-(3-chlorophenyl)-1-piperazine]-2-methylpropyl]-1,2,4-triazole[4,3-a]-pyridin-3-(2H)-one], the DL50 (DL50) is reported as at most 600, the “serotonine 2 (% inhibition)” value (serotonin 2; C = 10^-5 M) is reported as 100% and the “serotonine 2 (% inhibition)” value (serotonin 2; C = 10^-7 M) is reported as 62%. The “alpha 1 (% inhibition)” value (alpha 1; C = 10^-5 M) was 88% and the “alpha 1 (% inhibition)” value (alpha 1; C = 10^-7 M) was 27%.

For `O=c1n(CCCN2CCN(c3cccc(Cl)c3)CC2)nc2ccccn12` [trazodone], the clinical actions [1] is listed as “diazepine-like clinical actions”, the DL50 (DL50) is listed as at least 200 and the sporadic side effects [2] is listed as “hypotension and priapism”.
